# Measured values published in ChEMBL document CHEMBL3638907, “Substituted pyrazolo[1,5-a]pyrimidine compounds as Trk kinase inhibitors” (2014).
# Biological target: Tyrosine-protein kinase JAK2 (Homo sapiens, UniProt O60674)
# Experiment: Inhibition Assay: Compounds of Formula I were screened for their ability to inhibit Jak2 using the general enzyme inhibition assay method, in which the assay mixture contained 500 μM ATP, 10 μM Omnia Y7 peptide (Catalog # IVGN KNZ3071C, Invitrogen Corporation, Carlsbad, Calif.) and 4 nM Jak2 in a total volume of 20 μL. […] (catalog # IVGN PV4210).
# Chain of Tyrosine-protein kinase JAK2 (O60674 whole entry): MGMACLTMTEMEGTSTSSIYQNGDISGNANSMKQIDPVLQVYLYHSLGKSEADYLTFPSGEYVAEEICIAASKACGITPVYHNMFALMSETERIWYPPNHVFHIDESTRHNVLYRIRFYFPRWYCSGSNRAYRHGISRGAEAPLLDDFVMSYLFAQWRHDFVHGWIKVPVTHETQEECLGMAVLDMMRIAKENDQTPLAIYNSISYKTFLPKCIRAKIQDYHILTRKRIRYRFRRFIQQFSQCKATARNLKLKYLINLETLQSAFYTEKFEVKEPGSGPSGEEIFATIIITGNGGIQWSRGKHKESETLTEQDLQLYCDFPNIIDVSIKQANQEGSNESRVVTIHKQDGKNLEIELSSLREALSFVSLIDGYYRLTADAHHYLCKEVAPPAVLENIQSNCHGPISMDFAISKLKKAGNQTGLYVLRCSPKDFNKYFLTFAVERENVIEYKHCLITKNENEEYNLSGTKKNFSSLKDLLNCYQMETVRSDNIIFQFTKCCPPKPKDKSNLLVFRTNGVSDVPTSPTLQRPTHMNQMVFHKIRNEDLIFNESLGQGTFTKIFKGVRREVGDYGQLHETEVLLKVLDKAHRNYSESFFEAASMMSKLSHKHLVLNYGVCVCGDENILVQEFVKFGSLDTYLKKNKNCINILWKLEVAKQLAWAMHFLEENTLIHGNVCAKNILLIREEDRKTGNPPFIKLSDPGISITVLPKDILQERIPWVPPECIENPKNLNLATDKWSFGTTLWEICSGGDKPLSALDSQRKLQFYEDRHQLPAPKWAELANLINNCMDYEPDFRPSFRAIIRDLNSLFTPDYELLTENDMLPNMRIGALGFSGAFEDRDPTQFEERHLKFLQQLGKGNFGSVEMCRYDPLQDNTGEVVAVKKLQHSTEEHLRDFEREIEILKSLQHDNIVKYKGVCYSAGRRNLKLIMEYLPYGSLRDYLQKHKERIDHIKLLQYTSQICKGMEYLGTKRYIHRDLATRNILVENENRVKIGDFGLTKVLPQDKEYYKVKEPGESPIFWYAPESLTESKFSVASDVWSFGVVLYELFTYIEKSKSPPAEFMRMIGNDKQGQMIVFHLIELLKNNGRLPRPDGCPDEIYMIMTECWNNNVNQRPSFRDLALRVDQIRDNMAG
row,IC50 [nM],SMILES
1,472,COCCOc1ccc(F)cc1[C@H]1CCCN1c1ccn2ncc(C(=O)NC3CC3)c2n1
2,> 1000,COc1ncc(F)cc1[C@H]1CCCN1c1ccn2ncc(C(=O)NCCCNC(=O)OC(C)(C)C)c2n1
